Reference: patent publication EP0430883A2, “Anthelmintical compounds” (CIBA-GEIGY AG, priority 1989, dated 1991)

Key:
[1] = system: Nematoden wie Haemonchus contortus und Trichostrongylus colubriformis; test: Test on sheep infected with nematodes (worm count at necropsy); format: in vivo, Schafe; details: single dose of 20 mg Wirksubstanz pro kg Körpergewicht, suspension by stomach tube or rumen injection, worms left in the gut counted 7-10 days after treatment vs untreated infected controls
Text: 3.1. Versuch an mit Nematoden wie Haemonchus contortus und Trichostrongylus colubriformis infizierten Schafen
Der Wirkstoff wird in Form einer Suspension mit einer Magensonde oder durch Pansen-Injektion Schafen verabreicht, die vorher mit Nematoden wie Haemonchus contortus und Trichostrongylus colubriformis künstlich infiziert wurden. Pro Versuch resp. pro Dosis werden 1 bis 3 Tiere verwendet. Jedes Schaf wird mit nur einer einzigen Dosis behandelt.
Eine erste Evaluierung erfolgt dadurch, dass die Anzahl der vor und nach der Behandlung im Kot der Schafe ausgeschiedenen Wurmeier verglichen wird.
Sieben bis zehn Tage nach der Behandlung werden die Schafe getötet und seziert. Die Auswertung erfolgt durch Auszählung der nach der Behandlung im Darm zurückbleibenden Würmer. Gleichzeitig und gleichartig infizierte aber unbehandelte Schafe dienen als Kontrolle resp. Vergleich.
In diesem Test wird mit Verbindungen der Formeln I und la eine starke Reduzierung des Nematodenbefalls erzielt. So wird beispielsweise beim Einsatz von 20 mg Wirksubstanz pro kg Körpergewicht mit den nachfolgenden Verbindungen eine Reduzierung des Nematodenbefalls von ca. 90 % bewirkt: 1.1, 5.1 und 5.2. Dieses Ergebnis wird bei einzelnen Verbindungen auch noch mit weiter herabgesetzter Dosis, beispielsweise mit 10 mg Wirksubstanz pro kg Körpergewicht oder noch geringeren Mengen an Wirksubstanz, erreicht.

[2] = system: Cestoden wie Moniezia benedeni; test: Test on sheep infected with cestodes (worm count at necropsy); format: in vivo, Schafe; details: single dose of less than 20 mg/kg Körpergewicht, suspension by stomach tube or rumen injection, worms left in the gut counted 7-10 days after treatment vs untreated infected controls
Text: 3.2. Versuch an mit Cestoden wie Moniezia benedeni infizierten Schafen
Der Wirkstoff wird in Form einer Suspension mit einer Magensonde oder durch Pansen-Injektion Schafen verabreicht, die vorher mit Cestoden wie Moniezia benedeni artifiziell infiziert wurden. Pro Versuch resp. pro Dosis werden 3 Tiere verwendet. Jedes Schaf wird mit nur einer einzigen Dosis behandelt.
Sieben bis zehn Tage nach der Behandlung werden die Schafe getötet und seziert. Die Auswertung erfolgt durch Auszählung der nach der Behandlung im Darm zurückbleibenden Würmer. Gleichzeitig und gleichartig infizierte aber unbehandelte Schafe dienen als Kontrolle resp. Vergleich. In diesem Versuch bewirken Wirkstoffe aus den Tabellen, wie beispielsweise die Verbindungen Nr. 1.1, 5.1 und 5.2. bei Dosen von weniger als 20 mg/kg Körpergewicht eine ca. 90%ige Reduktion des Cestodenbefalls.

Row | Compound | Reduzierung des Nematodenbefalls [1] | Reduktion des Cestodenbefalls [2]
1 | CN1CN(C)C(=O)C(C(=O)Nc2ccc(Oc3nc4ccc(OC(F)(F)F)cc4s3)cc2)C1=O [Verbindung 5.1, 1,3-Dimethyl-5-[4-(6-trifluormethoxy-benzthiazol-2-yloxy)-phenylcarbamoyl]-4,6-(1 H,3H,5H)-pyrimidindion] | ca. 90% | ca. 90%
2 | Cn1c[n+](C)c(=O)c(C(=O)Nc2ccc(Oc3nc4ccc(OC(F)(F)F)cc4s3)cc2)c1[O-] [Verbindung 1.1, 1,3-Dimethyl-5-[4-(6-trifluormethoxy-benzthiazol-2-yloxy)-phenylcarbamoyl]-4(6)-oxo-6-(4)-oxido-(1H,5H)-pyrimidiniumbetain] | ca. 90% | ca. 90%
3 | 1,3-Dimethyl-5-[4-(5-oder 7-Chlor-6-fluor-benzthiazol-2-yloxy)-phenylcarbamoyl]-4,6-(1 H,3H,5H)-pyrimidindion [Verbindung 5.2] | ca. 90% | ca. 90%
